Test results from patent publication US7855166B2, “Sulfonylamino(thio)carbonyl compounds” (Bayer Cropscience GmbH, priority 2005, dated 2010).

Tests used:
[1] = tested on: weed plants such as Sinapis alba, Echinochloa crus-galli, Lolium multiflorum, Chrysanthemum segetum, Setaria viridis, Abutilon theophrasti, Amaranthus …; assay: Post-emergence effect on weeds (greenhouse pot test, visual scoring); format: in vivo; conditions: applied post-emergence (three-leaf stage) at a rate of 0.3 kg or less of active substance per hectare; scored after about 3 to 4 weeks in comparison to untreated controls
[2] = tested on: weed plants such as Sinapis alba, Chrysanthemum segetum, Avena sativa, Stellaria media, Echinochloa crus-galli, Lolium multiflorum, Setaria viridis, Abutilon …; assay: Pre-emergence effect on weeds (greenhouse pot test, visual scoring); format: in vivo; conditions: applied pre-emergence at a rate of 0.3 kg or less of active substance per hectare; scored after 3 to 4 weeks in comparison to untreated controls

Compound	herbicidal action against weed plants (effect scored visually) [1]	herbicidal action against weed plants (visual scoring of plant damage or emergence damage) [2]
CCOc1cccc(I)c1S(=O)(=O)NC(=O)n1nc(OCC)n(C)c1=O [Compound 1.214]	very good herbicidal action	very good herbidical action
COc1nn(C(=O)NS(=O)(=O)c2c(Cl)cc(C(F)(F)F)cc2I)c(=O)n1C1CC1 [Compound 1.846]	very good herbicidal action	very good herbidical action
COc1nn(C(=O)NS(=O)(=O)c2c(Cl)ccc(Cl)c2I)c(=O)n1C1CC1 [Compound 1.853]	very good herbicidal action	very good herbidical action
CC(C)Oc1nn(C(=O)NS(=O)(=O)c2c(Cl)cc(C(F)(F)F)cc2I)c(=O)n1C [Compound 1.845]	very good herbicidal action	very good herbidical action
CCCOc1nn(C(=O)NS(=O)(=O)c2c(I)cccc2OCC)c(=O)n1C [Compound 1.215]	very good herbicidal action	very good herbidical action
CCCOc1nn(C(=O)NS(=O)(=O)c2ccc(C)c(F)c2I)c(=O)n1C [Compound 1.857]	very good herbicidal action	very good herbidical action
CCCOc1nn(C(=O)NS(=O)(=O)c2c(C)cccc2I)c(=O)n1C1CC1 [Compound 1.044]	very good herbicidal action	very good herbidical action
CCOc1nn(C(=O)NS(=O)(=O)c2ccc(Cl)cc2I)c(=O)n1C [Compound 1.870]	very good herbicidal action	very good herbidical action
CCOc1nn(C(=O)NS(=O)(=O)c2c(F)cccc2I)c(=O)n1C [Compound 1.022]	very good herbicidal action	very good herbidical action
COc1nn(C(=O)NS(=O)(=O)c2c(I)cccc2OS(C)(=O)=O)c(=O)n1C1CC1 [Compound 1.716]	very good herbicidal action	very good herbidical action
CCCOc1nn(C(=O)NS(=O)(=O)c2c(I)cccc2OCC2CC2)c(=O)n1C [Compound 1.350]	very good herbicidal action	very good herbidical action
CCCCOc1cccc(I)c1S(=O)(=O)NC(=O)n1nc(OCCC)n(C)c1=O [Compound 1.275]	very good herbicidal action	very good herbidical action
COc1nn(C(=O)NS(=O)(=O)c2cc(C(F)(F)F)ccc2I)c(=O)n1C1CC1 [Compound 1.839]	very good herbicidal action	very good herbidical action
CCCOc1nn(C(=O)NS(=O)(=O)c2ccc(Cl)cc2I)c(=O)n1C [Compound 1.871]	very good herbicidal action	very good herbidical action
COc1nn(C(=O)NS(=O)(=O)c2c(Cl)ccc(Cl)c2I)c(=O)n1C [Compound 1.849]	very good herbicidal action	very good herbidical action
CCCOc1nn(C(=O)NS(=O)(=O)c2c(F)cccc2I)c(=O)n1C [Compound 1.023]	very good herbicidal action	very good herbidical action
COc1ccc(Cl)c(I)c1S(=O)(=O)NC(=O)n1nc(OC(C)C)n(C)c1=O [Compound 1.819]	very good herbicidal action	very good herbidical action
CCCCc1ccc(S(=O)(=O)NC(=O)n2nc(OC(C)C)n(C)c2=O)c(I)c1 [Compound 1.889]	very good herbicidal action	very good herbidical action
CCCCc1ccc(S(=O)(=O)NC(=O)n2nc(OC)n(C3CC3)c2=O)c(I)c1 [Compound 1.886]	very good herbicidal action	very good herbidical action
COc1nn(C(=O)NS(=O)(=O)c2c(I)cccc2OS(=O)(=O)N(C)C)c(=O)n1C [Compound 1.749]	very good herbicidal action	very good herbidical action

Compound	herbicidal action against weed plants (effect scored visually) [1]	herbicidal action against weed plants (visual scoring of plant damage or emergence damage) [2]
CCCc1ccc(S(=O)(=O)NC(=O)n2nc(OCC)n(C3CC3)c2=O)c(I)c1 [Compound 1.881]	very good herbicidal action	very good herbidical action
COc1nn(C(=O)NS(=O)(=O)c2c(I)cccc2SC)c(=O)n1C1CC1 [Compound 1.584]	very good herbicidal action	very good herbidical action
COc1nn(C(=O)NS(=O)(=O)c2c(I)cccc2OC(C)C(F)(F)F)c(=O)n1C (stereo not drawn) [Compound 1.522]	very good herbicidal action	very good herbidical action
COc1nn(C(=O)NS(=O)(=O)c2c(I)cccc2OC(F)(F)F)c(=O)n1C [Compound 1.440]	very good herbicidal action	very good herbidical action
CCCCOc1cccc(I)c1S(=O)(=O)NC(=O)n1nc(OC)n(C)c1=O [Compound 1.273]	very good herbicidal action	very good herbidical action
CC(C)Oc1nn(C(=O)NS(=O)(=O)c2cccc(Cl)c2I)c(=O)n1C [Compound 1.831]	very good herbicidal action	very good herbidical action
COc1nn(C(=O)NS(=O)(=O)c2c(I)cccc2OC(C)C)c(=O)n1C1CC1 [Compound 1.258]	very good herbicidal action	very good herbidical action
CCCOc1nn(C(=O)NS(=O)(=O)c2ccc(F)cc2I)c(=O)n1C1CC1 [Compound 1.827]	very good herbicidal action	very good herbidical action
CCCc1ccc(S(=O)(=O)NC(=O)n2nc(OCC)n(C)c2=O)c(I)c1 [Compound 1.877]	very good herbicidal action	very good herbidical action
CCOc1nn(C(=O)NS(=O)(=O)c2ccc(C)c(F)c2I)c(=O)n1C1CC1 [Compound 1.860]	very good herbicidal action	very good herbidical action
CCCOc1nn(C(=O)NS(=O)(=O)c2ccccc2I)c(=O)n1C1CC1 [Compound 1.014]	very good herbicidal action	very good herbidical action
COc1nn(C(=O)NS(=O)(=O)c2c(I)cccc2OC(C)C)c(=O)n1C [Compound 1.251]	very good herbicidal action	very good herbidical action
CCOc1cccc(I)c1S(=O)(=O)NC(=O)n1nc(OCC)n(C2CC2)c1=O [Compound 1.221]	very good herbicidal action	very good herbidical action
COc1nn(C(=O)NS(=O)(=O)c2c(I)cccc2OCC2CC2)c(=O)n1C [Compound 1.346]	very good herbicidal action	very good herbidical action
CCOc1cccc(I)c1S(=O)(=O)NC(=O)n1nc(OC)n(C2CC2)c1=O [Compound 1.218]	very good herbicidal action	very good herbidical action
CCOc1nn(C(=O)NS(=O)(=O)c2c(Cl)ccc(Cl)c2I)c(=O)n1C [Compound 1.850]	very good herbicidal action	very good herbidical action
COc1nn(C(=O)NS(=O)(=O)c2c(I)cccc2OCC(C)C)c(=O)n1C1CC1 [Compound 1.294]	very good herbicidal action	very good herbidical action
CCOc1nn(C(=O)NS(=O)(=O)c2c(I)cccc2OCC(C)C)c(=O)n1C [Compound 1.290]	very good herbicidal action	very good herbidical action
CCCOc1nn(C(=O)NS(=O)(=O)c2c(I)cccc2OC)c(=O)n1C1CC1 [Compound 1.204]	very good herbicidal action	very good herbidical action
